Source: patent publication US7368578B2, “Five-membered heterocyclic compounds” (Takeda Pharmaceutical Company Limited, priority 2002, dated 2008)

Row | SMILES | melting point
1 | COc1cc(COc2nn(-c3ccccc3)cc2CC#N)ccc1OCc1nc(-c2ccccc2)oc1C [Example 283, (3-{[3-methoxy-4-(5-methyl-2-phenyl-1,3-oxazol-4-ylmethoxy)benzyl]oxy}-1-phenyl-1H-pyrazol-4-yl)acetonitrile] | 137 to 138 °C
2 | COc1cc(C(=O)Nc2nn(-c3ccccc3)cc2C=O)ccc1OCc1nc(-c2ccco2)oc1C [Example 290, N-(4-formyl-1-phenyl-1H-pyrazol-3-yl)-4-{[2-(2-furyl)-5-methyl-1,3-oxazol-4-yl]methoxy}-3-methoxybenzamide] | 212 to 213 °C
3 | COC(=O)c1cc(OCc2ccc(OCc3nc(-c4ccccc4)oc3C)c(OC)c2)nn1-c1ccccc1 [Example 291, methyl 3-{[3-methoxy-4-(5-methyl-2-phenyl-1,3-oxazol-4-ylmethoxy)benzyl]oxy}-1-phenyl-1H-pyrazole-5-carboxylate] | 143 to 144 °C
4 | COc1cc(COc2cc(C(=O)O)n(-c3ccccc3)n2)ccc1OCc1nc(-c2ccccc2)oc1C [Example 292, 3-{[3-methoxy-4-(5-methyl-2-phenyl-1,3-oxazol-4-ylmethoxy)benzyl]oxy}-1-phenyl-1H-pyrazole-5-carboxylic acid] | 192 to 193 °C
5 | COc1cc(COc2cc(CO)n(-c3ccccc3)n2)ccc1OCc1nc(-c2ccccc2)oc1C [Example 293, (3-{[3-methoxy-4-(5-methyl-2-phenyl-1,3-oxazol-4-ylmethoxy)benzyl]oxy}-1-phenyl-1H-pyrazol-5-yl)methanol] | 146 to 147 °C
6 | COc1cc(COc2cc(C=O)n(-c3ccccc3)n2)ccc1OCc1nc(-c2ccccc2)oc1C [Example 294, 3-{[3-methoxy-4-(5-methyl-2-phenyl-1,3-oxazol-4-ylmethoxy)benzyl]oxy}-1-phenyl-1H-pyrazole-5-carbaldehyde] | 119 to 120 °C
7 | CCOC(=O)/C=C/c1cn(-c2ccc(C(F)(F)F)cc2)nc1OCc1ccc(OCc2nc(-c3ccccc3)oc2C)c(OC)c1 [Example 295, ethyl (2E)-3-{3-({3-methoxy-4-[(5-methyl-2-phenyl-1,3-oxazol-4-yl)methoxy]benzyl}oxy)-1-[4-(trifluoromethyl)phenyl]-1H-pyrazol-4-yl}-2-propenoate] | 205 to 206 °C
8 | COc1cc(COc2nn(-c3ccc(C(F)(F)F)cc3)cc2/C=C/CO)ccc1OCc1nc(-c2ccccc2)oc1C [Example 296, (2E)-3-{3-({3-methoxy-4-[(5-methyl-2-phenyl-1,3-oxazol-4-yl)methoxy]benzyl}oxy)-1-[4-(trifluoromethyl)phenyl]-1H-pyrazol-4-yl}-2-propen-1-ol] | 118 to 119 °C
9 | COc1cc(COc2nn(-c3ccc(C(F)(F)F)cc3)cc2/C=C/C(=O)OCOC(=O)C(C)(C)C)ccc1OCc1nc(-c2ccccc2)oc1C [Example 297, [(2,2-dimethylpropanoyl)oxy]methyl (2E)-3-{3-({3-methoxy-4-[(5-methyl-2-phenyl-1,3-oxazol-4-yl)methoxy]benzyl}oxy)-1-[4-(trifluoromethyl)phenyl]-1H-pyrazol-4-yl}-2-propenoate] | 131 to 132 °C
10 | COc1cc(COc2cc(C#N)n(-c3ccccc3)n2)ccc1OCc1nc(-c2ccccc2)oc1C [Example 298, 3-{[3-methoxy-4-(5-methyl-2-phenyl-1,3-oxazol-4-ylmethoxy)benzyl]oxy}-1-phenyl-1H-pyrazole-5-carbonitrile] | 120 to 121 °C
11 | CCOC(=O)/C=C/c1cc(OCc2ccc(OCc3nc(-c4ccccc4)oc3C)c(OC)c2)nn1-c1ccccc1 [Example 299, ethyl (E)-3-(3-{[3-methoxy-4-(5-methyl-2-phenyl-1,3-oxazol-4-ylmethoxy)benzyl]oxy}-1-phenyl-1H-pyrazol5-yl)-2-propenoate] | 121 to 122 °C
12 | COc1cc(COc2cc(/C=C/C(=O)O)n(-c3ccccc3)n2)ccc1OCc1nc(-c2ccccc2)oc1C [Example 300, (E)-3-(3-{[3-methoxy-4-(5-methyl-2-phenyl-1,3-oxazol-4-ylmethoxy)benzyl]oxy}-1-phenyl-1H-pyrazol5-yl)-2-propenoic acid] | 194 to 195 °C
